Source: patent US20240158446A1, “CYCLIC COMPOUND HAVING SELECTIVE INHIBITORY ACTION ON KRAS OVER HRAS AND NRAS” (CHUGAI SEIYAKU KABUSHIKI KAISHA, priority 2021, published 2024)

Experiments:
[1] = target: GDP-bound HRAS wild-type protein (Homo sapiens, UniProt P01112); assay: Binding to HRAS by surface plasmon resonance (SPR), Single Cycle Kinetics; conditions: ratio of KD for GDP-bound HRAS wild-type protein to KD for KRAS, SPR
[2] = target: GDP-bound KRAS wild-type protein (Homo sapiens, UniProt P01116); assay: Binding to KRAS by surface plasmon resonance (SPR), Single Cycle Kinetics; conditions: SPR, Single Cycle Kinetics, GDP-bound KRAS wild-type protein; read-out: KRAS KD
[3] = test system: human lung cancer strain NCI-H441; assay: cells; conditions: NCI-H441, 96 h, read-out: NCI-H441 IC50 (nM), NCI-H441 cell proliferation, 4 days, CellTiter-Glo;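 further: cell proliferation inhibition after four days measured by CellTiter-Glo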
[4] = target: GDP-bound NRAS wild-type protein (Homo sapiens, UniProt P01111); assay: Binding to NRAS by surface plasmon resonance (SPR), Single Cycle Kinetics; conditions: ratio of KD for GDP-bound NRAS wild-type protein to KD for KRAS, SPR
Sequence of GDP-bound NRAS wild-type protein (P01111 whole entry): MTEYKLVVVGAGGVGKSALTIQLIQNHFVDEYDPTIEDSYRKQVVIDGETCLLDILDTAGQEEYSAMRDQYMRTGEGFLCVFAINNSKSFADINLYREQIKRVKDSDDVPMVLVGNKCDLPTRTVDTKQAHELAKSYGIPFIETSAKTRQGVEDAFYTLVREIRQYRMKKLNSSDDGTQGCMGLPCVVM

Sequence of GDP-bound KRAS wild-type protein (P01116 whole entry): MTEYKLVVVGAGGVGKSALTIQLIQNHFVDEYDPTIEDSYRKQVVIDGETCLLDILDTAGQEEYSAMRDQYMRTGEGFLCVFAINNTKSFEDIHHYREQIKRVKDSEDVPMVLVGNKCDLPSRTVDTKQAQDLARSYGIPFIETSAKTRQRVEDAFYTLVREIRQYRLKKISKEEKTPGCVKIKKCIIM
Sequence of GDP-bound HRAS wild-type protein (P01112 whole entry): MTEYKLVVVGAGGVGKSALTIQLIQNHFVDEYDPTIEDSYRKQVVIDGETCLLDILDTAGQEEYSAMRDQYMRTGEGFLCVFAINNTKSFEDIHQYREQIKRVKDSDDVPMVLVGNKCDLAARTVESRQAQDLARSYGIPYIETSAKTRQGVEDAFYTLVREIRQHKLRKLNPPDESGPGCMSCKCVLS

SMILES | HRAS/KRAS (KD ratio) [1] | Kd [2] [nM] | IC50 [3] [nM] | NRAS/KRAS (KD ratio) [4]
CCCN(C)C(=O)[C@@H]1CC(=O)N(C)[C@@H](CC(F)F)C(=O)N[C@@H]([C@@H](C)CC)C(=O)N(C)CC(=O)N(C)[C@H]2C/C=C\CCN(C2=O)[C@@H](Cc2ccc(C(F)(F)F)cc2)C(=O)N(C)CC(=O)N[C@@H](CCc2cc(F)c(C(F)(F)F)c(F)c2)C(=O)N2C[C@H](OCC)C[C@H]2C(=O)NC2(CC(F)(F)C2)C(=O)N(C)[C@@H](C2CCCC2)C(=O)N1C [PP1733] | A (a compound having 10 or more and less than 20 is denoted as A) | 0.11 | 3.8 | A (a compound having 10 or more and less than 20 is denoted as A)
CCCN(C)C(=O)[C@@H]1CC(=O)N(C)[C@@H](CC(F)(F)F)C(=O)N[C@@H]([C@@H](C)CC)C(=O)N(C)CC(=O)N(C)[C@H]2C/C=C\CCN(C2=O)[C@@H](Cc2ccc(C(F)(F)F)cc2)C(=O)N(C)CC(=O)N[C@@H](CCc2cc(F)c(C(F)(F)F)c(F)c2)C(=O)N2C[C@H](OCC)C[C@H]2C(=O)NC2(CC(F)(F)C2)C(=O)N(C)[C@@H](C2CCCC2)C(=O)N1C [PP1734] | A (a compound having 10 or more and less than 20 is denoted as A) | 0.17 | 4.4 | A (a compound having 10 or more and less than 20 is denoted as A)
CCC[C@H]1C(=O)N[C@@H]([C@@H](C)CC)C(=O)N(C)CC(=O)N(C)[C@H]2C/C=C\CCN(C2=O)[C@@H](Cc2ccc(C(F)(F)F)cc2)C(=O)N(C)CC(=O)N[C@@H](CCc2cc(F)c(C(F)(F)F)c(F)c2)C(=O)N2C[C@H](OCC)C[C@H]2C(=O)NC2(CC(F)(F)C2)C(=O)N(C)[C@@H](C2CCCC2)C(=O)N(C)[C@H](C(=O)N(C)CC)CC(=O)N1C [PP1735] | A (a compound having 10 or more and less than 20 is denoted as A) | 0.081 | 2.2 | AA (a compound having 20 or more is denoted as AA)
CCC[C@H]1C(=O)N[C@@H]([C@@H](C)CC)C(=O)N(C)CC(=O)N(C)[C@H]2C/C=C\CCN(C2=O)[C@@H](Cc2ccc(C(F)(F)F)cc2)C(=O)N(C)CC(=O)N[C@@H](CCc2cc(F)c(C(F)(F)F)c(F)c2)C(=O)N2C[C@H](OCC)C[C@H]2C(=O)NC2(CC(F)(F)C2)C(=O)N(C)[C@@H](C2CCCC2)C(=O)N(C)[C@H](C(=O)N(C)CCC)CC(=O)N1C [PP1736] | A (a compound having 10 or more and less than 20 is denoted as A) | 0.13 | 3.6 | A (a compound having 10 or more and less than 20 is denoted as A)
C#CC[C@H]1C(=O)N[C@@H]([C@@H](C)CC)C(=O)N(C)CC(=O)N(C)[C@H]2C/C=C\CCN(C2=O)[C@@H](Cc2ccc(C(F)(F)F)cc2)C(=O)N(C)CC(=O)N[C@@H](CCc2cc(F)c(C(F)(F)F)c(F)c2)C(=O)N2C[C@H](OCC)C[C@H]2C(=O)NC2(CC(F)(F)C2)C(=O)N(C)[C@@H](C2CCCC2)C(=O)N(C)[C@H](C(=O)N(C)CCC)CC(=O)N1C [PP1737] | A (a compound having 10 or more and less than 20 is denoted as A) | 0.11 | 2.7 | A (a compound having 10 or more and less than 20 is denoted as A)
CCO[C@@H]1C[C@H]2C(=O)NC3(CC(F)(F)C3)C(=O)N(C)[C@@H](C3CCCC3)C(=O)N(C)[C@H](C(=O)N(C)CC)CC(=O)N(C)[C@@H](CC3CC3)C(=O)N[C@@H]([C@@H](C)CC)C(=O)N(C)CC(=O)N(C)[C@H]3C/C=C\CCN(C3=O)[C@@H](Cc3ccc(C(F)(F)F)cc3)C(=O)N(C)CC(=O)N[C@@H](CCc3cc(F)c(C(F)(F)F)c(F)c3)C(=O)N2C1 [PP1738] | A (a compound having 10 or more and less than 20 is denoted as A) | 0.071 | 5.1 | AA (a compound having 20 or more is denoted as AA)
CCCN(C)C(=O)[C@@H]1CC(=O)N(C)[C@@H](CC2CC2)C(=O)N[C@@H]([C@@H](C)CC)C(=O)N(C)CC(=O)N(C)[C@H]2C/C=C\CCN(C2=O)[C@@H](Cc2ccc(C(F)(F)F)cc2)C(=O)N(C)CC(=O)N[C@@H](CCc2cc(F)c(C(F)(F)F)c(F)c2)C(=O)N2C[C@H](OCC)C[C@H]2C(=O)NC2(CC(F)(F)C2)C(=O)N(C)[C@@H](C2CCCC2)C(=O)N1C [PP1739] | AA (a compound having 20 or more is denoted as AA) | 0.054 | 5.5 | AA (a compound having 20 or more is denoted as AA)
CCO[C@@H]1C[C@H]2C(=O)NC3(CC(F)(F)C3)C(=O)N(C)[C@@H](C3CCCC3)C(=O)N(C)[C@H](C(=O)N(C)C)CC(=O)N(C)[C@@H](CC(C)C)C(=O)N[C@@H]([C@@H](C)CC)C(=O)N(C)CC(=O)N(C)[C@H]3C/C=C\CCN(C3=O)[C@@H](Cc3ccc(C(F)(F)F)cc3)C(=O)N(C)CC(=O)N[C@@H](CCc3cc(F)c(C(F)(F)F)c(F)c3)C(=O)N2C1 [PP1741] | B (a compound having 3 or more and less than 10 is denoted as B) | 0.039 | 2.3 | A (a compound having 10 or more and less than 20 is denoted as A)
CCO[C@@H]1C[C@H]2C(=O)NC3(CC(F)(F)C3)C(=O)N(C)[C@@H](C3CCCC3)C(=O)N(C)[C@H](C(=O)N(C)C)CC(=O)N(C)[C@@H](CC3CCC3)C(=O)N[C@@H]([C@@H](C)CC)C(=O)N(C)CC(=O)N(C)[C@H]3C/C=C\CCN(C3=O)[C@@H](Cc3ccc(C(F)(F)F)cc3)C(=O)N(C)CC(=O)N[C@@H](CCc3cc(F)c(C(F)(F)F)c(F)c3)C(=O)N2C1 [PP1742] | A (a compound having 10 or more and less than 20 is denoted as A) | 0.051 | 1.6 | A (a compound having 10 or more and less than 20 is denoted as A)
CCCN(C)C(=O)[C@@H]1CC(=O)N(C)[C@@H](COC)C(=O)N[C@@H]([C@@H](C)CC)C(=O)N(C)CC(=O)N(C)[C@H]2C/C=C\CCN(C2=O)[C@@H](Cc2ccc(C(F)(F)F)cc2)C(=O)N(C)CC(=O)N[C@@H](CCc2cc(F)c(C(F)(F)F)c(F)c2)C(=O)N2C[C@H](OCC)C[C@H]2C(=O)NC2(CC(F)(F)C2)C(=O)N(C)[C@@H](C2CCCC2)C(=O)N1C [PP1743] | A (a compound having 10 or more and less than 20 is denoted as A) | 0.076 | 5.1 | AA (a compound having 20 or more is denoted as AA)
CCCOC[C@H]1C(=O)N[C@@H]([C@@H](C)CC)C(=O)N(C)CC(=O)N(C)[C@H]2C/C=C\CCN(C2=O)[C@@H](Cc2ccc(C(F)(F)F)cc2)C(=O)N(C)CC(=O)N[C@@H](CCc2cc(F)c(C(F)(F)F)c(F)c2)C(=O)N2C[C@H](OCC)C[C@H]2C(=O)NC2(CC(F)(F)C2)C(=O)N(C)[C@@H](C2CCCC2)C(=O)N(C)[C@H](C(=O)N(C)CCC)CC(=O)N1C [PP1744] | A (a compound having 10 or more and less than 20 is denoted as A) | 0.13 | 5.3 | A (a compound having 10 or more and less than 20 is denoted as A)
CCO[C@@H]1C[C@H]2C(=O)NC3(CC(C)(C)C3)C(=O)N(C)[C@@H](C3CCCC3)C(=O)N(C)[C@H](C(=O)N(C)C)CC(=O)N(C)[C@@H](CC)C(=O)N[C@@H]([C@@H](C)CC)C(=O)N(C)CC(=O)N(C)[C@H]3C/C=C\CCN(C3=O)[C@@H](Cc3ccc(C(F)(F)F)cc3)C(=O)N(C)CC(=O)N[C@@H](CCc3ccc(C(F)(F)F)c(Cl)c3)C(=O)N2C1 [PP1746] | A (a compound having 10 or more and less than 20 is denoted as A) | 0.054 | 1.9 | A (a compound having 10 or more and less than 20 is denoted as A)
